{"source": "paper PMC4456360", "about": "“A Recombinant Fungal Lectin for Labeling Truncated Glycans on Human Cancer Cells” (PLoS ONE, 2015)", "key": {"[1]": {"system": "A549 cells", "experiment": "Flow cytometry, lectin binding to A549 cells (glycosylation inhibitors, glycosidases)", "assay_type": "cell-based, human", "settings": "for Percentage of inhibition of MAH binding (mean fluorescence intensity): MAH 5 μg ml^-1; for Percentage of inhibition of rPVL binding (mean fluorescence intensity): biotinylated rPVL 1 μg ml^-1"}, "[2]": {"system": "HBEC-3KT cell line", "assay_type": "cell-based, human"}, "[3]": {"system": "M119", "design": "key to the marks not given beside the values", "settings": "M119, Melanoma"}, "[4]": {"system": "glandular compartment of the stomach and small intestine", "experiment": "Labeling of healthy tissues by biotinylated rPVL", "settings": "100 mM GlcNAc", "method": "Ethanol-fixed human trachea, esophagus, duodenal junction, jejunum, colon, pancreas, liver, ovary, uterus and vagina samples were obtained from organ donors. 18 tissue samples from 10 different individuals were used to prepare a tissue microarray (TMA) of healthy tissues.\nThe tissue sections were deparaffinized, then endogenous peroxidases were blocked by incubating the sections with PBS containing 3% hydrogen peroxide (v/v), for 5 mn. The sections were then blocked with BSA 5% (w/v) for 30 min at room temperature, followed by incubation with 0,7–1 μg ml^-1 biotinylated rPVL 1h at room temperature (Ethanol-fixed sections) or 2 μg ml^-1 of biotinylated rPVL in PBS at 4°C for 18h (for formalin-fixed sections). After washing the sections twice with PBS, an indirect biotin-streptavidin system and DAB (Ventana Medical Systems) or AEC (Vector laboratories) detection kits were used according to the manufacturer’s instructions. The developed slides were washed twice with PBS and counterstained with hematoxylin. After washing with water, the sections were dehydrated and mounted. Sections were observed under a BX41 microscope equipped with a DP-70 digital camera system (Olympus, Tokyo, Japan) or imaged with a NanoZoomer slide-scanner (Hamamatsu, Hamamatsu City)."}}}
{"compound": "3-fluoro-peracetyl-neuraminic acid [3F-NeuAc]", "values": [{"measurement": "Percentage of inhibition of MAH binding (mean fluorescence intensity)", "setting": "[1]; A549 cells grown 4 days with 100 μM Fluoro-Neu5Ac", "value": 75, "unit": "%"}, {"measurement": "Percentage of inhibition of rPVL binding (mean fluorescence intensity)", "setting": "[1]", "value": 59, "unit": "%"}]}
{"compound": "CC(=O)OC1O[C@@H](C)[C@@H](OC(C)=O)[C@@H](OC(C)=O)[C@@H]1F", "note": "(stereo partly shown) [2-FF, 2-fluoro-peracetyl fucose]", "values": [{"measurement": "Percentage of inhibition of MAH binding (mean fluorescence intensity)", "setting": "[1]; A549 cells grown 4 days with 400 μM 2-Fluoro-Fucose, listed as 2F-fucose", "value": "did not affect"}, {"measurement": "Percentage of inhibition of rPVL binding (mean fluorescence intensity)", "setting": "[1]; listed as 2F-fucose", "value": "did not affect"}]}
{"compound": "CC(=O)N[C@@H]1[C@@H](O)[C@H](O)[C@@H](CO)O[C@H]1O", "note": "[GlcNAc, N-acetylglucosamine]", "values": [{"measurement": "inhibition of rPVL binding by GlcNAc (in words)", "setting": "[2]", "value": "complete inhibition"}, {"measurement": "Inhibtion by GlcNac (of PVL staining)", "setting": "[3]", "value": "++"}, {"measurement": "inhibition of rPVL staining by GlcNAc (in words)", "setting": "[4]", "value": "partial inhibition"}]}
